In US20260125376A1, “IRREVERSIBLE INACTIVATORS TARGETING ARAF/MEK COMPLEXES” (Dana-Farber Cancer Institute, Inc., priority 2022, published 2026):

Key:
ARAF/MEK protein complex = ARAF/MEK protein complex (Homo sapiens, UniProt P10398+Q02750); test: Mass spectrometry-based assay for covalent labeling of ARAF; assay type: binding; conditions: ARAF/MEK protein complex incubated at room temperature for 2 hours with inhibitor at concentration ratio 1:10; LC-MS of denatured protein
Protocol: Covalent labeling of ARAF by compounds of the invention was measured using a mass spectrometry-based assay. The ARAF/MEK protein complex was incubated at room temperature for 2 hours with desired inhibitors at a concentration ratio of 1:10. Following incubation, proteins were denatured in 8 M urea. Formic acid was added to a final 1% and desalted over C4 resin prior to LCMS analysis. Denatured proteins (10 μg per sample) were analyzed by LC-MS via a U3000 RSLC coupled to an Orbitrap Eclipse mass spectrometer (Thermo Scientific, Waltham, MA, USA). Proteins were eluted off a ES811A (Thermo Scientific, Waltham, MA, USA) 15-cm C4 column with a 5-50% gradient of MeCN in 1% FA. MS scans (range=600-2000 m/z) were obtained in the orbitrap at 120,000 resolution with 4 microscans. The Xtract function in Freestyle software (Thermo Scientific, Waltham, MA, USA) was used to deconvolute charge states averaged across the elution window. Fractional labeling of ARAF was measured by quantitating the unlabeled ARAF and ARAF shifted by the mass expected for formation of a covalent adduct of ARAF with the compound of interest.

[1] = target: T1, ARAF/14-3-3 chimera (residues 274-606 of human ARAF fused to human 14-3-3 epsilon) (Homo sapiens, UniProt P10398+Q02750, D190N/G300S/Y301D/Y302D); test: TR-FRET-based kinase assay: inhibition of phosphorylation of MEK1 by ARAF; assay type: biochemical; conditions: 250 nM MEK1(D190N), 75 nM ARAF/14-3-3 chimera, 30 minutes incubation with inhibitor, 200 μM ATP, 1 hour, HTRF
T1 construct: residues 274-606 of human ARAF, including the kinase domain and complete C-terminal region; made in house; host or cells: Sf9 insect cells (baculovirus)
Protocol: The ability of compounds of the invention to inhibit phosphorylation of MEK by ARAF was measured in a TR-FRET-based kinase assay using purified ARAF and MEK proteins. An active, chimeric ARAF protein was employed for this study. This ARAF protein included residues 274-606 of human ARAF, including the kinase domain and complete C-terminal region, fused to human 14-3-3 epsilon (ARAF/14-3-3 chimera). Amino acids corresponding to residues […] of human ARAF (with the sequence Ser-Gly-Tyr-Tyr) were mutated to Ser-Ser-Asp-Asp in this ARAF/14-3-3 chimera. […] In this assay, the ability of compounds of interest to inhibit phosphorylation of MEK1 by ARAF was measured by incubating 250 nM unphosphorylated full-length MEK1(D190N) with 75 nM ARAF/14-3-3 chimera and inhibitor of interest at a series of 12 concentrations (from 10 μM to 1.3 nM) for 30 minutes in reaction buffer (50 mM HEPES pH 7.0, 5 mM MgCl2, 1 mM MnCl2, 0.01% BSA, 2 mM TCEP, 0.1 mM NaVO4) at room temperature. Reactions were initiated by addition of 200 μM ATP and allowed to proceed for 1 hour. Reactions were quenched using detection buffer from HTRF-KinEASE kit (Cisbio). Signal was read with a PHERAstar plate reader (excitation=337 nm, emission=620 nm and 665 nm). IC50 values were determined using Graphpad Prism software from the 12 point concentration-response data using a three-parameter dose-response fit with the Hill slope constrained to −1.

T1 sequence (P10398 274-606 G300S/Y301D/Y302D limits assumed): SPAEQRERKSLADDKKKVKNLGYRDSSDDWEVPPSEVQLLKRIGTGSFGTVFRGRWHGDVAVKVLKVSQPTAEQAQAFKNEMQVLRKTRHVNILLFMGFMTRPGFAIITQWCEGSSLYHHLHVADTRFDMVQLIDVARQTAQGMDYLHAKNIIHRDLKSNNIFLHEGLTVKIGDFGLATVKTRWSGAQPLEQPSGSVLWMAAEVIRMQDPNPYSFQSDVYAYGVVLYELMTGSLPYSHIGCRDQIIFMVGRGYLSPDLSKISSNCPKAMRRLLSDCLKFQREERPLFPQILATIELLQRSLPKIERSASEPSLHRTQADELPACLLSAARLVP
T1 sequence (Q02750 whole entry D190N, the tested form may be a part): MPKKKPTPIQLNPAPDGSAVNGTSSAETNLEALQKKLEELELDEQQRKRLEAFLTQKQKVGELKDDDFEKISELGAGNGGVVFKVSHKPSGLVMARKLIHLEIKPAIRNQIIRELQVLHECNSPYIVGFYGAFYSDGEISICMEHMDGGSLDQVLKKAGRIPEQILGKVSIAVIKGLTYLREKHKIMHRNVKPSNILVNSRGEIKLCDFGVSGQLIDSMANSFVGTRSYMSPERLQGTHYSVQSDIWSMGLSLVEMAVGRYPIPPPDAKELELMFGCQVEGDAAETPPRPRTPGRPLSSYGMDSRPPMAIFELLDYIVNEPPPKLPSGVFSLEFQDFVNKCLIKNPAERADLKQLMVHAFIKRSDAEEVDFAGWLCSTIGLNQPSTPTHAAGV
Chain of ARAF/MEK protein complex (P10398 whole entry): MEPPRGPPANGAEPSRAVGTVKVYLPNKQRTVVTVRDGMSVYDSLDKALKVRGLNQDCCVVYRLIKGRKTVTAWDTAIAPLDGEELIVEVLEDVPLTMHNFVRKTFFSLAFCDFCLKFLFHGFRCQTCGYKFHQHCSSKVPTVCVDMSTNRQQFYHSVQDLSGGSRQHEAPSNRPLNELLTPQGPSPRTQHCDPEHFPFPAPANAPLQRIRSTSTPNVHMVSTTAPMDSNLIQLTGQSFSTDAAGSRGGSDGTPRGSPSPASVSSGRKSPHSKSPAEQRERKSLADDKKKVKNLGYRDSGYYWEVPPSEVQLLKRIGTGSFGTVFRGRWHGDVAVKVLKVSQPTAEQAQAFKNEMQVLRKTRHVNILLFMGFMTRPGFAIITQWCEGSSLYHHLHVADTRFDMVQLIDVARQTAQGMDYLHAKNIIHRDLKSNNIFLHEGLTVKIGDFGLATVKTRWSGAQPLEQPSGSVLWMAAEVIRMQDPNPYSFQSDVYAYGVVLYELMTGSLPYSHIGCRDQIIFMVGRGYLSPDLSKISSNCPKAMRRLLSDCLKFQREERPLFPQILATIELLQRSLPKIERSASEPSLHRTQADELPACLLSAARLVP
Chain of ARAF/MEK protein complex (Q02750 whole entry): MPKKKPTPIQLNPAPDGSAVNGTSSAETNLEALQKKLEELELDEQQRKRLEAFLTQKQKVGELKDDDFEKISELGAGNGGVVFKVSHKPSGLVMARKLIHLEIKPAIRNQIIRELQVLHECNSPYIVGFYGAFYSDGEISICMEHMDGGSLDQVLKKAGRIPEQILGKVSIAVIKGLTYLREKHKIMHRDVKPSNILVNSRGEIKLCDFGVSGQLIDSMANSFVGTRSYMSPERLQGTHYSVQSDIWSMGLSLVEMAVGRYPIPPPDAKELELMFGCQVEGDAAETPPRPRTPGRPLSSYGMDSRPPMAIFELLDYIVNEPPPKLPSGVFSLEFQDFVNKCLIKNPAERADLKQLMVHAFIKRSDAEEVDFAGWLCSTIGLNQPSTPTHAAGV

| % labeling (covalent labeling of ARAF) (ARAF/MEK protein complex) | IC50 [1] | SMILES |
| --- | --- | --- |
| 50% |  | Cc1c(Cc2ccc(NC(=O)CCl)cc2F)c(=O)oc2cc(Oc3ncccn3)ccc12 [Example 2, 2-Chloro-N-(3-fluoro-4-((4-methyl-2-oxo-7-(pyrimidin-2-yloxy)-2H-chromen-3-yl)methyl)phenyl)acetamide] |
| 40% |  | Cn1cnc2c(F)c(Nc3ccc(Br)cc3Cl)c(C(=O)NCc3ccc(NC(=O)CCl)cc3)cc21 [Example 8, 5-((4-Bromo-2-chlorophenyl)amino)-N-(4-(2-chloroacetamido)benzyl)-4-fluoro-1-methyl-1H-benzo[d]imidazole-6-carboxamide] |
| 0% |  | C=CC(=O)Nc1ccc(Cn2cnc3c(F)c(Nc4ccc(Br)cc4Cl)c(C(=O)OC)cc32)cc1 [Example 9, Methyl 1-(4-acrylamidobenzyl)-5-((4-bromo-2-chlorophenyl)amino)-4-fluoro-1H-benzo[d]imidazole-6-carboxylate] |
| 75% |  | COC(=O)c1cc2c(ncn2Cc2ccc(NC(=O)CCl)cc2)c(F)c1Nc1ccc(Br)cc1Cl [Example 10, Methyl 5-((4-bromo-2-chlorophenyl)amino)-1-(4-(2-chloroacetamido)benzyl)-4-fluoro-1H-benzo[d]imidazole-6-carboxylate] |
| 100% | 210 nM | C=C(F)C(=O)Nc1cccc(-n2c(=O)n(C3CC3)c(=O)c3c(Nc4ccc(I)cc4F)n(C)c(=O)c(C)c32)c1 [Example 12, N-(3-(3-Cyclopropyl-5-((2-fluoro-4-iodophenyl)amino)-6,8-dimethyl-2,4,7-trioxo-3,4,6,7-tetrahydropyrido[4,3-d]pyrimidin-1(2H)-yl)phenyl)-2-fluoroacrylamide] |

The remaining lines, values behind:

| SMILES | % labeling (covalent labeling of ARAF) (ARAF/MEK protein complex) | IC50 [1] |
| --- | --- | --- |
| C=CC(=O)Nc1cccc(Cc2c(C)c3ccc(Oc4ncccn4)cc3oc2=O)c1F [Example 3, N-(2-Fluoro-3-((4-methyl-2-oxo-7-(pyrimidin-2-yloxy)-2H-chromen-3-yl)methyl)phenyl)acrylamide] | 85% | 130 nM |
| Cc1c(Cc2cccc(NC(=O)CCl)c2F)c(=O)oc2cc(Oc3ncccn3)ccc12 [Example 4, 2-Chloro-N-(2-fluoro-3-((4-methyl-2-oxo-7-(pyrimidin-2-yloxy)-2H-chromen-3-yl)methyl)phenyl)acetamide] | 100% | 60 nM |
| C=CC(=O)Nc1ccc(CNC(=O)c2ccc(F)c(F)c2Nc2ccc(I)cc2F)cc1 [Example 5, N-(4-Acrylamidobenzyl)-3,4-difluoro-2-((2-fluoro-4-iodophenyl)amino)benzamide] | 10% |  |
| O=C(CCl)Nc1ccc(CNC(=O)c2ccc(F)c(F)c2Nc2ccc(I)cc2F)cc1 [Example 6, N-(4-(2-Chloroacetamido)benzyl)-3,4-difluoro-2-((2-fluoro-4-iodophenyl)amino)benzamide] | 40% |  |
| C=CC(=O)Nc1ccc(CNC(=O)c2cc3c(ncn3C)c(F)c2Nc2ccc(Br)cc2Cl)cc1 [Example 7, N-(4-Acrylamidobenzyl)-5-((4-bromo-2-chlorophenyl)amino)-4-fluoro-1-methyl-1H-benzo[d]imidazole-6-carboxamide] | 0% |  |
| Cc1c(=O)n(C)c(Nc2ccc(I)cc2F)c2c(=O)n(C3CC3)c(=O)n(-c3cccc(NC(=O)CCl)c3)c12 [Example 11, 2-Chloro-N-(3-(3-cyclopropyl-5-((2-fluoro-4-iodophenyl)amino)-6,8-dimethyl-2,4,7-trioxo-3,4,6,7-tetrahydropyrido[4,3-d]pyrimidin-1(2H)-yl)phenyl)acetamide] | 100% | 490 nM |
